Data published in patent US12180187B2, “1-phenyl-5-azinylpyrazolyl-3-oxyalkyl acids and their use for controlling unwanted plant growth” (BAYER AKTIENGESELLSCHAFT, priority 2019, dated 2024).

Columns and labels:
ABUTH = experiment: Pre-emergence action against ABUTH, 1280 g/ha; assay type: in vivo, Abutilon theophrasti; conditions: scored visually after about 3 weeks vs untreated controls (100% = plants have died)
How it was run: (§1)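 Greenhouse pre-emergence test on sown seeds in sandy loam; soil-surface spray of formulated compound with 0.5% additive at 600 L/ha water. Scored visually, % vs untreated, after about 3 weeks.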

ALOMY [1] = experiment: Post-emergence action against ALOMY, 320 g/ha; assay type: in vivo, Alopecurus myosuroides; conditions: dosage 320 g/ha, visual rating about 3 weeks after treatment vs untreated controls (100% = plants died)
How it was run: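 Sow in sandy loam → greenhouse growth 2–3 wk → spray at one-leaf stage (WP/EC, aqueous, +0.5% additive, 600 l/ha) → hold ~3 wk under optimum conditions → visual rating, 0–100% relative to untreated.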

LOLRI [2] = experiment: Pre-emergence action at 320 g/ha against LOLRI; assay type: in vivo, Lolium rigidum; conditions: visual scoring after about 3 weeks vs untreated controls
How it was run: (§2)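 Weed seeds sown in pots and covered with soil; compounds formulated as WP or EC were sprayed onto the soil surface as aqueous suspension or emulsion with 0.5% additive at 600 l/ha water. Pots kept in greenhouse; activity scored visually after about 3 weeks versus untreated controls (100% = plants dead, 0% = like control).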

VERPE [3] = experiment: Post-emergence action against VERPE, 1.28 kg/ha; assay type: in vivo, Veronica persica; conditions: dosage 1280 g/ha, visual rating about 3 weeks after treatment vs untreated controls (100% = plants died)
How it was run: (§3)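 Visual rating against untreated plants about 3 weeks after spraying gives % activity, where 0% means like controls and 100% means plants died. Plants were treated post-emergence at the one-leaf stage with compound formulated as wettable powder or emulsion concentrate, applied at 600 L water/ha plus 0.5% additive.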

STEME = experiment: Post-emergence action against STEME, 1.28 kg/ha; assay type: in vivo, Stellaria media; conditions: dosage 1280 g/ha, visual rating about 3 weeks after treatment vs untreated controls (100% = plants died)
How it was run: as §3

AVEFA = experiment: Pre-emergence action at 320 g/ha against AVEFA; assay type: in vivo; conditions: visual scoring after about 3 weeks vs untreated controls
How it was run: as §2

ALOMY [4] = experiment: Post-emergence action against ALOMY, 1.28 kg/ha; assay type: in vivo, Alopecurus myosuroides; conditions: dosage 1280 g/ha, visual rating about 3 weeks after treatment vs untreated controls
How it was run: as §3

MATIN = experiment: Post-emergence action against MATIN, 1.28 kg/ha; assay type: in vivo, Tripleurospermum inodorum (Matricaria inodora); conditions: dosage 1280 g/ha, visual rating about 3 weeks after treatment vs untreated controls (100% = plants died)
How it was run: as §3

LOLRI [5] = experiment: Pre-emergence action against LOLRI, 1280 g/ha; assay type: in vivo, Lolium rigidum; conditions: visual scoring after about 3 weeks vs untreated controls, 100% = plants have died, 0% = like control plants
How it was run: as §1

VERPE [6] = experiment: Pre-emergence action at 320 g/ha against VERPE; assay type: in vivo, Veronica persica; conditions: visual scoring after about 3 weeks vs untreated controls
How it was run: as §2

DIGSA [7] = experiment: Post-emergence action against DIGSA, 1.28 kg/ha; assay type: in vivo, Digitaria sanguinalis; conditions: dosage 1280 g/ha, visual rating about 3 weeks after treatment vs untreated controls
How it was run: as §3

SETVI = experiment: Post-emergence action against SETVI, 1.28 kg/ha; assay type: in vivo, Setaria viridis; conditions: dosage 1280 g/ha, visual rating about 3 weeks after treatment vs untreated controls
How it was run: as §3

DIGSA [8] = experiment: Pre-emergence action against DIGSA, 1280 g/ha; assay type: in vivo, Digitaria sanguinalis; conditions: visual scoring after about 3 weeks vs untreated controls, 100% = plants have died, 0% = like control plants
How it was run: as §1

VERPE [9] = experiment: Pre-emergence action against VERPE, 1280 g/ha; assay type: in vivo, Veronica persica; conditions: scored visually after about 3 weeks vs untreated controls (100% = plants have died)
How it was run: as §1

PHBPU = experiment: Post-emergence action at 320 g/ha against PHBPU; assay type: in vivo; conditions: visual rating about 3 weeks after treatment vs untreated controls
From the text: Accordingly, the compounds of the invention have good herbicidal action against a broad spectrum of weed grasses and broad-leaved weeds and are therefore suitable for controlling unwanted vegetation by the post-emergence method. • b) Seeds of monocotyledonous and dicotyledonous weeds and crop plants are placed in sandy loam in plastic or organic planting pots, covered with soil and cultivated in a greenhouse under controlled growth conditions. 2 to 3 weeks after sowing, the test plants are treated at the one-leaf stage. The compounds of the invention, formulated in the form of wettable powders (WP) or as emulsion concentrates (EC), are then sprayed onto the green parts of the plants as aqueous suspension or emulsion with addition of 0.5% additive at a water application rate of 600 l/ha (converted). After the test plants have been kept in the greenhouse under optimum growth conditions for about 3 weeks, the activity of the preparations is rated visually in comparison to untreated controls. For example, 100% activity=the plants have died, 0% activity=like control plants. Tables 39 to 49 below show the effects of selected compounds of the general formula (I) according to Tables 1 and 2 on various harmful plants and at an application rate corresponding to 320 g/ha, which were obtained by the experimental procedure mentioned above.

| Compound | Pre-emergence action against ABUTH (ABUTH) | Post-emergence action against ALOMY (ALOMY [1]) | Pre-emergence action against LOLRI in % (LOLRI [2]) | Post-emergence action against VERPE (VERPE [3]) | Post-emergence action against STEME (STEME) | Pre-emergence action against AVEFA in % (AVEFA) | Post-emergence action against ALOMY (ALOMY [4]) | Post-emergence action against MATIN (MATIN) | Pre-emergence action against LOLRI (LOLRI [5]) | Pre-emergence action against VERPE in % (VERPE [6]) | Post-emergence action against DIGSA (DIGSA [7]) | Post-emergence action against SETVI (SETVI) | Pre-emergence action against DIGSA (DIGSA [8]) | Pre-emergence action against VERPE (VERPE [9]) | further results |
| --- | --- | --- | --- | --- | --- | --- | --- | --- | --- | --- | --- | --- | --- | --- | --- |
| COC(=O)CNC(=O)COc1nn(-c2ccccc2F)c(-c2ccc(F)nc2)c1C(F)(F)F [Example X-007] | 90% | 100% | 100% | 90% | 100% | 100% | 100% | 90% | 100% | 100% | 100% | 100% | 100% | 100% | – |
| COC(=O)COc1nn(-c2ccc(F)cc2)c(-c2ccc(F)nc2)c1Br [VII-002] | – | 100% | – | – | 90% | 80% | – | 90% | 100% | 100% | – | 90% | – | – | Post-emergence action against PHBPU in % (PHBPU): 90% |
| CCC(Oc1nn(-c2ccccc2F)c(-c2ccc(F)nc2)c1Br)C(=O)OC (stereo not shown) [VII-029] | 90% | 100% | 90% | 90% | 100% | – | 100% | – | 100% | 100% | 100% | – | 100% | 100% | – |
| CCOC(=O)C(C)Oc1nn(-c2ccccc2F)c(-c2ccc(F)nc2)c1I (stereo not shown) [VII-057] | 90% | 80% | 90% | 90% | – | 90% | 100% | 100% | 100% | – | 100% | 100% | 100% | 100% | – |
| CCOC(=O)C(C)Oc1nn(-c2ccccc2F)c(-c2ccc(F)nc2)c1C(F)(F)F (stereo not shown) [VII-066] | – | 90% | 90% | 90% | 100% | 90% | 100% | 90% | 100% | 100% | 100% | 90% | 100% | 100% | – |
| O=C(COc1nn(-c2ccccc2F)c(-c2ccc(F)nc2)c1Br)OCC1CCOC1 (stereo not shown) [VII-091] | 90% | 90% | 100% | 100% | 90% | 90% | 100% | 90% | 100% | 100% | 100% | 90% | 100% | 100% | – |
| COC(=O)[C@H](C)Oc1nn(-c2cc(F)ccc2F)c(-c2ccc(F)nc2)c1Br [VII-107] | – | 90% | 80% | 100% | 100% | 90% | 100% | 100% | 90% | 80% | 100% | 90% | 100% | 100% | – |
| CCOC(=O)COc1nn(-c2ccccc2F)c(-c2ccc(F)nc2)c1C [VII-117] | 90% | 90% | 100% | 100% | – | 100% | – | 90% | 100% | 90% | 100% | – | 100% | 100% | – |
| CCOC(=O)COc1nn(-c2ccccc2F)c(-c2ccnc(F)c2)c1Br [VIII-003, Ethyl {[4-bromo-1-(2-fluorophenyl)-5-(2-fluoropyridin-4-yl)-1H-pyrazol-3-yl]oxy}acetate] | – | 90% | – | – | 100% | – | – | – | – | – | – | 100% | – | – | pest or weed control at 320 g/ha (LOLRI [2]; Lolium rigidum, 504 h): 90%; pest or weed control at 1280 g/ha (VERPE [3]; Veronica persica, 504 h): 90%; pest or weed control at 320 g/ha (AVEFA; Avena fatua, 504 h): 90%; Post-emergence action against PHBPU in % (PHBPU): 80%; pest or weed control at 1280 g/ha (LOLRI [5]; Lolium rigidum, 504 h): 90%; pest or weed control at 320 g/ha (VERPE [6]; Veronica persica, 504 h): 90%; pest or weed control at 1280 g/ha (VERPE [9]; Veronica persica, 504 h): 90% |
